For 27 compounds, IC50 and concentration results are on record in ChEMBL document CHEMBL1134804, “Studies leading to the identification of ZD1839 (IRESSA): an orally active, selective epidermal growth factor receptor tyrosine kinase inhibitor targeted to the treatment of cancer” (Bioorg Med Chem Lett, 2001).

pIC50: −log10 of the molar value.

One data set deals with KB 3-1. The data set can be described thus: cells. As to conditions: Homo sapiens.
A short description of the next data set: in vivo. As to conditions: mouse, po, 200 mg/kg.
For data set [1], the target named is Epidermal growth factor receptor (Homo sapiens, UniProt P00533).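 Further: tyrosine kinase inhibition of EGFR isolated from A431 vulval squamous carcinoma cells, measured in vitro with a TKI assay.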
Description: In vitro inhibitory activity against Epidermal growth factor receptor (EGFR-TK) from A431 vulval squamous carcinoma cells using TKI assay

For orientation: pIC50 means the IC50 on a negative log10 scale, so that one unit is a factor of ten. A lower pIC50 goes with a high IC50.

Epidermal growth factor receptor, sequence (P00533 whole entry): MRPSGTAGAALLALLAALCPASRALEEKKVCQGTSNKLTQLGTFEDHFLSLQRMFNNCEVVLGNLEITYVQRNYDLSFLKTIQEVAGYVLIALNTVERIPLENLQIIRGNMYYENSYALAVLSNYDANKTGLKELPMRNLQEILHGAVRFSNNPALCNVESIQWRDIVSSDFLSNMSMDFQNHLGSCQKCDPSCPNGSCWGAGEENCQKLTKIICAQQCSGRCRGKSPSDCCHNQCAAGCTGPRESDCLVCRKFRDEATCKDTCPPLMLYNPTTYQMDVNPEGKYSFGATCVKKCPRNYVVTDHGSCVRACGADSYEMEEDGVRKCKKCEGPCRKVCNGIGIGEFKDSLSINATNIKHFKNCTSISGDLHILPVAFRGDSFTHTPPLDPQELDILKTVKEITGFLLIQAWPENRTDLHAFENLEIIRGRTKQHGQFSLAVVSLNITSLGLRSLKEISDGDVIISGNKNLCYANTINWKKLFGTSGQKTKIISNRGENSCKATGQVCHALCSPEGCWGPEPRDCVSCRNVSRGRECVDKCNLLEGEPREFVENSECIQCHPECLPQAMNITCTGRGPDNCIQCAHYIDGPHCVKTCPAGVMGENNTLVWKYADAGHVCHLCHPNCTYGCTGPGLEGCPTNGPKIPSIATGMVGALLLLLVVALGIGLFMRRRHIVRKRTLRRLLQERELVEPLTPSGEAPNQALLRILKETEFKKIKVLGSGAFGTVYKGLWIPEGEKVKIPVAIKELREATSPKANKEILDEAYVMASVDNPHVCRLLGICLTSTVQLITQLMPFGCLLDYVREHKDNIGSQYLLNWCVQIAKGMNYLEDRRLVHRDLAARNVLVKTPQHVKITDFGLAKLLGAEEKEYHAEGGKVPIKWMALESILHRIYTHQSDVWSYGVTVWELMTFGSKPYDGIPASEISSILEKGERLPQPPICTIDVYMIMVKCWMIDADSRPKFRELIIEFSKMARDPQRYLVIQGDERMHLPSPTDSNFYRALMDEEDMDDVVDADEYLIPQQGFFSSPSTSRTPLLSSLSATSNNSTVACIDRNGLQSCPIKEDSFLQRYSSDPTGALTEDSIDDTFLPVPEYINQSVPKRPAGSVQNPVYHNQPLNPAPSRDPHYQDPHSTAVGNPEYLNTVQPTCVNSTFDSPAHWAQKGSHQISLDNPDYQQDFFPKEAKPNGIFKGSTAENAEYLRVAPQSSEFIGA
Description for KB 3-1: In vitro inhibitory activity against EGF-stimulated proliferation of KB2 cells in culture

`COc1cc2ncnc(Nc3ccc(F)c(Cl)c3)c2cc1OCCN1CCOCC1` had a pIC50 with KB 3-1 of 6.42. The compound also displayed a concentration at 6 h in the data set “in vivo” of 156 µM.

For `COc1cc2ncnc(Nc3ccc(F)c(Cl)c3)c2cc1OC[C@@H](O)CN1CCOCC1`, the pIC50 in the data set on KB 3-1 was 6.80; in data set [1] it was 7.02. In addition, the concentration at 6 h in the data set “in vivo” came out at 23 µM.

For `COc1cc2ncnc(Nc3ccc(F)c(Cl)c3)c2cc1OC[C@H](O)CN1CCOCC1`, the values for the negative-log IC50 (pIC50) (in the data set on KB 3-1; in data set [1]) were 6.89 and 7.17, respectively. Moreover, the concentration at 6 h in the data set “in vivo” amounted to 15 µM.

In turn, `COc1cc2ncnc(Nc3ccc(F)c(Cl)c3)c2cc1OCCCN1CCCCC1` had a concentration at 6 h in the data set “in vivo” of 5.2 µM.

Regarding `CCN(CC)CCOc1cc2c(Nc3ccc(F)c(Cl)c3)ncnc2cc1OC`, the pIC50 was 6.51 in the data set on KB 3-1 and 7.03 in data set [1]. Also, the concentration at 6 h in “in vivo” came to 2.8 µM.

With `CNCCOc1cc2c(Nc3ccc(F)c(Cl)c3)ncnc2cc1OC`, the pIC50 is 6.46 in the data set with KB 3-1 and 8.10 in data set [1]. The concentration at 6 h in the data set “in vivo” was 1.6 µM.

In “in vivo”, `COc1cc2ncnc(Nc3ccc(F)c(Cl)c3)c2cc1OCCn1ccnc1` registered a concentration at 6 h of 164 µM.

Regarding `COCCN(CCOC)CCOc1cc2c(Nc3ccc(F)c(Cl)c3)ncnc2cc1OC`, the pIC50 in the data set with KB 3-1 was 6.77; in data set [1] it was 7.21. The same compound displayed a concentration at 6 h in the data set “in vivo” of 7.2 µM.

Take `COc1cc2ncnc(Nc3ccc(F)c(Cl)c3)c2cc1OCCCN1CCCC1`: in “in vivo”, the concentration at 6 h came out at 8.8 µM.

For `COc1cc2ncnc(Nc3ccc(F)c(Cl)c3)c2cc1OCC(O)CN(CCO)CCO` (stereo not drawn), the pIC50 in the data set on KB 3-1 is 6.07; in data set [1], 8.30. The concentration at 6 h in “in vivo” is 0.2 µM.

Compound `COc1cc2ncnc(Nc3ccc(F)c(Cl)c3)c2cc1OCCN1CCN(C)CC1` had a pIC50 with KB 3-1 of 7.05. In addition, in “in vivo”, the concentration at 6 h was determined as 7.1 µM.

The compound `COc1cc2ncnc(Nc3ccc(F)c(Cl)c3)c2cc1OC` came in with a concentration at 6 h in “in vivo” of 16 µM.

In the data set “in vivo”, `CCN(CC)CCCOc1cc2c(Nc3ccc(F)c(Cl)c3)ncnc2cc1OC` registered a concentration at 6 h of 5.4 µM.

`COc1cc2ncnc(Nc3ccc(F)c(Cl)c3)c2cc1OCCNC(C)C`: the pIC50 was 6.66 in the data set with KB 3-1 and 6.51 in data set [1]. Further, in the data set “in vivo”, the concentration at 6 h was 0.4 µM.

On to `COc1cc2ncnc(Nc3ccc(F)c(Cl)c3)c2cc1OCCNC(C)(CO)CO`, for which the pIC50 in the data set on KB 3-1 was 6.04; in data set [1], 7.16. In “in vivo”, the concentration at 6 h turned out to be 0.1 µM.

As to `COc1cc2ncnc(Nc3ccc(F)c(Cl)c3)c2cc1OCCN1CCCCC1`, the concentration at 6 h in the data set “in vivo” turned out to be 16 µM.

Regarding `CNCC(O)COc1cc2c(Nc3ccc(F)c(Cl)c3)ncnc2cc1OC` (stereo not drawn), the pIC50 with KB 3-1 was 6.66; in data set [1] it was 8.30.

As to `COc1cc2ncnc(Nc3ccc(F)c(Cl)c3)c2cc1OCC(O)CN` (stereo not drawn), in the data set “in vivo”, the concentration at 6 h was 0.1 µM.

Take `COc1cc2ncnc(Nc3ccc(F)c(Cl)c3)c2cc1OCCN(CCO)CCO`: the pIC50 with KB 3-1 was 6.34; in data set [1], 7.46. In the data set “in vivo”, this compound showed a concentration at 6 h of 1 µM.

On to `COc1cc2ncnc(Nc3cccc(C)c3)c2cc1OC`, for which the pIC50 in the data set with KB 3-1 is 7.30.

As for `COCCNCCOc1cc2c(Nc3ccc(F)c(Cl)c3)ncnc2cc1OC`, the pIC50 with KB 3-1 was 6.74; in data set [1], 8.10. The concentration at 6 h in “in vivo” worked out at 11 µM.

For the compound `COc1cc2ncnc(Nc3ccc(F)c(Cl)c3)c2cc1OCCNCCN(C)C`, the pIC50 with KB 3-1 was 6.82; in data set [1], 8.70. This compound also yielded a concentration at 6 h in the data set “in vivo” of 1.1 µM.

Take `COc1cc2ncnc(Nc3ccc(F)c(Cl)c3)c2cc1OCCN1CCCC1`: in the data set “in vivo”, the concentration at 6 h worked out at 8.2 µM.

`COc1cc2ncnc(Nc3ccc(F)c(Cl)c3)c2cc1OCCN(C)C`: the negative logarithm of the IC50 (pIC50) with KB 3-1 is 6.92; in data set [1], 8.15. The compound also had a concentration at 6 h in “in vivo” of 52 µM.

For `COc1cc2ncnc(Nc3ccc(F)c(Cl)c3)c2cc1OCCNC(C)(C)C`, the pIC50 with KB 3-1 was 6.49; in data set [1] it was 7.00. For the same compound, in “in vivo”, the concentration at 6 h stood at 0.1 µM.

As for `COc1cc2ncnc(Nc3ccc(F)c(Cl)c3)c2cc1OCCCN(C)C`, in the data set “in vivo”, the concentration at 6 h came out at 34 µM.

Take `COc1cc2ncnc(Nc3ccc(F)c(Cl)c3)c2cc1OCC(O)Cn1ccnc1` (stereo not drawn): the pIC50 in the data set on KB 3-1 was 6.42; in data set [1] it was 8.10. Further, the concentration at 6 h in “in vivo” was determined as 0.04 µM.
